The subject of the test is primary rat mixed cortical cells. Briefly: In vitro myelination assay (MBP positive myelin strands, fold myelin pixels above background). Format: cell-based. To be noted: Rattus norvegicus; for fold induction at 1 µM: 1.0 μM compound; for fold induction at 10 µM: 10.0 μM compound. In short, it runs like this:
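P1 rat mixed cortical cultures (neurons, OPCs, oligodendrocytes, astrocytes, microglia) grown 14 days at 37 °C with compound, half-medium refreshed with compound on days 6 and 10. Fixed cells stained for MBP; MBP-positive myelin strand pixels per well quantified by automated imaging, reported as fold over no-compound baseline at 1.0 and 10.0 μM.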

Where [1] appears, read: read-out: Fold myelin pixels above background relative to baseline of no added compound.
[2] abbreviates: relative to baseline of no added compound, read-out: Fold myelin pixels above background.
Setting [3] is: relative to baseline of no added compound, read-out: Fold myelin pixels above background, 1.0 μM.
Where [4] appears, read: relative to baseline of no added compound, read-out: Fold myelin pixels above background, 10.0 μM.

SMILES strings stand for the structures. Where two headings read alike, the source gives them in different places.

For the compound `Cc1cc(NCCOC2CCC2)cc(Nc2ncn(-c3cc(F)cc(F)c3)n2)c1` [Compound 1008, N3-[2-(cyclobutoxy)ethyl]-N1-[1-(3,5-difluorophenyl)-1,2,4-triazol-3-yl]-5-methyl-benzene-1,3-diamine], under setting [1], the fold induction at 1 µM was in the range of 10 to 100 and the fold induction at 10 µM was 1 to 10.

For `Cc1cc(Nc2cc(C)[nH]n2)cc(Nc2ncn(-c3ccccc3)n2)c1` [Compound 699, 5-methyl-N3-(5-methyl-1H-pyrazol-3-yl)-N1-(1-phenyl-1,2,4-triazol-3-yl)benzene-1,3-diamine], under setting [2], the fold induction at 1 µM is 1 to 10 and the fold induction at 10 µM was at most 1.

Turning to `Cc1cc(Nc2ncn(-c3cccc(F)c3F)n2)cc(N2CCN(C3COC3)CC2)c1` [Compound 445, 1-(2,3-difluorophenyl)-N-[3-methyl-5-[4-(oxetan-3-yl)piperazin-1-yl]phenyl]-1,2,4-triazol-3-amine], under setting [2], the fold induction at 1 µM was in the range of 10 to 100 and the fold induction at 10 µM was in the range of 10 to 100.

With `Cc1cc(Nc2ncn(-c3cc(F)cc(F)c3)n2)cc(N2CCC(OC3CCOC3)CC2)c1` (centres unmarked) [Compound 1014, 1-(3,5-difluorophenyl)-N-[3-methyl-5-(4-tetrahydrofuran-3-yloxy-1-piperidyl)phenyl]-1,2,4-triazol-3-amine], under setting [1], the fold induction at 1 µM lay within 1 to 10 and the fold induction at 10 µM fell in the range of 1 to 10.

On to `Cc1cc(Nc2ncn(-c3cc(F)cc(F)c3)n2)cc(NC2CCOC(C3CC3)C2)c1` (centres unmarked) [Compound 918, N1-(2-cyclopropyltetrahydropyran-4-yl)-N3-[1-(3,5-difluorophenyl)-1,2,4-triazol-3-yl]-5-methyl-benzene-1,3-diamine], for which, under setting [1], the fold induction at 1 µM lay in the range of 1 to 10 and the fold induction at 10 µM was at most 1.

For `Cc1cc(Nc2ncn(-c3cccnc3)n2)cc(N2CCN(C3(C)COC3)CC2)c1` [Compound 585, N-[3-methyl-5-[4-(3-methyloxetan-3-yl)piperazin-1-yl]phenyl]-1-(3-pyridyl)-1,2,4-triazol-3-amine], under setting [2], the fold induction at 1 µM fell in the range of 10 to 100 and the fold induction at 10 µM was in the range of 1 to 10.

For the compound `Cc1cc(Nc2ncn(-c3ccc(F)c(F)c3)n2)cc(OC2CCN(C3COC3)CC2)c1` [Compound 384, 1-(3,4-difluorophenyl)-N-[3-methyl-5-[[1-(oxetan-3-yl)-4-piperidyl]oxy]phenyl]-1,2,4-triazol-3-amine], the fold induction at 1 µM under setting [3] is 100 to 1000. Also, the fold induction at 10 µM under setting [4] was in the range of 100 to 1000.

Take `CN1CCN(c2cc(F)cc(Nc3ncn(-c4ccc(F)cc4F)n3)c2)CC1` [Compound 450, 1-(2,4-difluorophenyl)-N-[3-fluoro-5-(4-methylpiperazin-1-yl)phenyl]-1,2,4-triazol-3-amine]: under setting [2], the fold induction at 1 µM is at most 1 and the fold induction at 10 µM is at most 1.

As to `Cc1cc(NC2CCOCC2)cc(Nc2ncn(-c3cc(F)cc(F)c3)n2)c1F` [Compound 1021, N3-[1-(3,5-difluorophenyl)-1,2,4-triazol-3-yl]-4-fluoro-5-methyl-N1-tetrahydropyran-4-yl-benzene-1,3-diamine], under setting [1], the fold induction at 1 µM was 1 to 10 and the fold induction at 10 µM was at most 1.

Consider `Cc1cc(Nc2ncn(-c3ccnc(F)c3)n2)cc(N2CCCN(C3COC3)CC2)c1` [Compound 776, 1-(2-fluoro-4-pyridyl)-N-[3-methyl-5-[4-(oxetan-3-yl)-1,4-diazepan-1-yl]phenyl]-1,2,4-triazol-3-amine], for which, under setting [2], the fold induction at 1 µM was 10 to 100 and the fold induction at 10 µM was at most 1.

With `Cc1cc(Nc2ncn(-c3cc(F)cc(F)c3)n2)cc([C@@]2(C)CN(C3COC3)CCO2)c1` (single isomer, unassigned) [Compound 667], under setting [2], the fold induction at 1 µM fell in the range of 10 to 100 and the fold induction at 10 µM is 1 to 10.

Turning to `Cc1cc(Nc2ncn(-c3cc(F)cc(F)c3)n2)cc(N2CCN(C(=O)C3CCOCC3)CC2)c1` [Compound 991, [4-[3-[[1-(3,5-difluorophenyl)-1,2,4-triazol-3-yl]amino]-5-methyl-phenyl]piperazin-1-yl]-tetrahydropyran-4-yl-methanone], under setting [1], the fold induction at 1 µM was in the range of 10 to 100 and the fold induction at 10 µM is 1 to 10.

Turning to `Cc1cc(Nc2ncn(-c3cccc(Cl)c3)n2)cc(N2CCN(C)CC2)c1` [Compound 141, 1-(3-chlorophenyl)-N-[3-methyl-5-(4-methylpiperazin-1-yl)phenyl]-1,2,4-triazol-3-amine], the fold induction at 1 µM under setting [3] lay within 100 to 1000. Besides, the fold induction at 10 µM under setting [4] was at most 1.

As for `Cc1cc(Nc2ncn(-c3cc(F)cc(F)c3)n2)cc(N2CCN(CC(F)(F)F)CC2)c1` [Compound 421, 1-(3,5-difluorophenyl)-N-[3-methyl-5-[4-(2,2,2-trifluoroethyl)piperazin-1-yl]phenyl]-1,2,4-triazol-3-amine], under setting [2], the fold induction at 1 µM lay within 100 to 1000 and the fold induction at 10 µM was in the range of 100 to 1000.

In the case of `Cc1cc(Nc2ncn(-c3cc(C)ccn3)n2)cc(N2CCN(C3COC3)CC2)c1` [Compound 54, N-[3-methyl-5-[4-(oxetan-3-yl)piperazin-1-yl]phenyl]-1-(4-methyl-2-pyridyl)-1,2,4-triazol-3-amine], under setting [3], the fold induction at 1 µM fell in the range of 10 to 100. Moreover, the fold induction at 10 µM under setting [4] lay in the range of 100 to 1000.

With `Cc1cc(Nc2ncn(-c3cnccn3)n2)cc(N2CCN(C3CC3)CC2)c1` [Compound 20, N-[3-(4-cyclopropylpiperazin-1-yl)-5-methyl-phenyl]-1-pyrazin-2-yl-1,2,4-triazol-3-amine], the fold induction at 1 µM under setting [3] was in the range of 10 to 100. In addition, under setting [4], the fold induction at 10 µM fell in the range of 100 to 1000.

Take `Cc1cc(Nc2ncn(-c3cc(F)cc(F)c3)n2)cc(N2CCOC(COC(C)C)C2)c1` (centres unmarked) [Compound 927, 1-(3,5-difluorophenyl)-N-[3-[2-(isopropoxymethyl)morpholin-4-yl]-5-methyl-phenyl]-1,2,4-triazol-3-amine]: under setting [1], the fold induction at 1 µM is 10 to 100 and the fold induction at 10 µM fell in the range of 1 to 10.

In the case of `Cc1cc(Nc2ncn(-c3cc(F)cc(F)c3)n2)cc(N2CC(O)C2)c1` [Compound 355, 1-[3-[[1-(3,5-difluorophenyl)-1,2,4-triazol-3-yl]amino]-5-methyl-phenyl]azetidin-3-ol], the fold induction at 1 µM under setting [3] is 10 to 100. The fold induction at 10 µM under setting [4] lay within 100 to 1000.

Take `CCc1cc(Nc2ncn(-c3ccc(F)c(F)c3)n2)cc(N2CC(N3CCOCC3)C2)c1` [Compound 198, 1-(3,4-difluorophenyl)-N-[3-ethyl-5-(3-morpholinoazetidin-1-yl)phenyl]-1,2,4-triazol-3-amine]: under setting [3], the fold induction at 1 µM lay within 100 to 1000. In addition, the fold induction at 10 µM under setting [4] was in the range of 10 to 100.

With `COc1ccc(-n2cnc(Nc3cc(C)cc(N4CC(N5CCOCC5)C4)c3)n2)cc1F` [Compound 735, 1-(3-fluoro-4-methoxy-phenyl)-N-[3-methyl-5-(3-morpholinoazetidin-1-yl)phenyl]-1,2,4-triazol-3-amine], under setting [2], the fold induction at 1 µM lay in the range of 1 to 10 and the fold induction at 10 µM lay in the range of 1 to 10.

As for `Cc1cc(Nc2ncn(-c3cc(F)cc(F)c3)n2)cc(N2CC(N3CCC(F)CC3)C2)c1` [Compound 617, 1-(3,5-difluorophenyl)-N-[3-[3-(4-fluoro-1-piperidyl)azetidin-1-yl]-5-methyl-phenyl]-1,2,4-triazol-3-amine], under setting [2], the fold induction at 1 µM was in the range of 10 to 100 and the fold induction at 10 µM is 10 to 100.

On to `CCc1cc(Nc2ncn(-c3ccnc(OC)n3)n2)cc(N2CCN(C3COC3)CC2)c1` [Compound 314, N-[3-ethyl-5-[4-(oxetan-3-yl)piperazin-1-yl]phenyl]-1-(2-methoxypyrimidin-4-yl)-1,2,4-triazol-3-amine], for which, under setting [3], the fold induction at 1 µM is 10 to 100. The fold induction at 10 µM under setting [4] was 10 to 100.

For the compound `Cc1cc(Nc2ncn(-c3ccccc3)n2)cc(N2CCN3C(=O)OCC3C2)c1` (centres unmarked) [Compound 227, 7-[3-methyl-5-[(1-phenyl-1,2,4-triazol-3-yl)amino]phenyl]-5,6,8,8a-tetrahydro-1H-oxazolo[3,4-a]pyrazin-3-one], the fold induction at 1 µM under setting [3] fell in the range of 100 to 1000. Under setting [4], the fold induction at 10 µM fell in the range of 10 to 100.

`Cc1cc(Nc2ncn(-c3cc(F)cc(F)c3)n2)cc(C2CN(C3COC3)CCO2)c1` (centres unmarked) [Compound 581, 1-(3,5-difluorophenyl)-N-[3-methyl-5-[4-(oxetan-3-yl)morpholin-2-yl]phenyl]-1,2,4-triazol-3-amine]: under setting [2], the fold induction at 1 µM lay in the range of 10 to 100 and the fold induction at 10 µM is at most 1.

In the case of `Fc1cc(F)cc(-n2cnc(Nc3cc(Cl)cc(NC4COC4)c3)n2)c1` [Compound 705, 5-chloro-N3-[1-(3,5-difluorophenyl)-1,2,4-triazol-3-yl]-N1-(oxetan-3-yl)benzene-1,3-diamine], under setting [2], the fold induction at 1 µM is 10 to 100 and the fold induction at 10 µM was 1 to 10.

In the case of `Cc1cc(Nc2ncn(-c3cc(F)cc(F)c3)n2)cc(N2CCC(C3COC3)CC2)c1` [Compound 216, 1-(3,5-difluorophenyl)-N-[3-methyl-5-[4-(oxetan-3-yl)-1-piperidyl]phenyl]-1,2,4-triazol-3-amine], the fold induction at 1 µM under setting [3] lay in the range of 1 to 10. For the same compound, the fold induction at 10 µM under setting [4] lay in the range of 10 to 100.

`Cc1cc(Nc2ncn(-c3ccc(OC(F)(F)F)cc3)n2)cc(N2CCN(C3COC3)CC2)c1` [Compound 478, N-[3-methyl-5-[4-(oxetan-3-yl)piperazin-1-yl]phenyl]-1-[4-(trifluoromethoxy)phenyl]-1,2,4-triazol-3-amine]: under setting [2], the fold induction at 1 µM was in the range of 1 to 10 and the fold induction at 10 µM lay within 1 to 10.

As to `Fc1cc(Nc2ncn(-c3cc(F)cc(F)c3)n2)cc(N2CCN(C3COC3)CC2)c1` [Compound 112, 1-(3,5-difluorophenyl)-N-[3-fluoro-5-[4-(oxetan-3-yl)piperazin-1-yl]phenyl]-1,2,4-triazol-3-amine], under setting [3], the fold induction at 1 µM fell in the range of 1000 to 10000. For the same compound, the fold induction at 10 µM under setting [4] lay within 100 to 1000.
